The source of these data is ChEMBL document CHEMBL5360657, “Discovery of the TLR7/8 Antagonist MHV370 for Treatment of Systemic Autoimmune Diseases” (ACS Med Chem Lett, 2023).

In series [1] the target is T1, Cytochrome P450 3A4 (Homo sapiens, UniProt P08684). Briefly: Time dependent inhibition of CYP3A4 (unknown origin) assessed as Kobs. The format is ADME.
A further series addresses T2, Toll-like receptor 8 (Homo sapiens, UniProt Q9NR97).
T2 sequence (Q9NR97 whole entry): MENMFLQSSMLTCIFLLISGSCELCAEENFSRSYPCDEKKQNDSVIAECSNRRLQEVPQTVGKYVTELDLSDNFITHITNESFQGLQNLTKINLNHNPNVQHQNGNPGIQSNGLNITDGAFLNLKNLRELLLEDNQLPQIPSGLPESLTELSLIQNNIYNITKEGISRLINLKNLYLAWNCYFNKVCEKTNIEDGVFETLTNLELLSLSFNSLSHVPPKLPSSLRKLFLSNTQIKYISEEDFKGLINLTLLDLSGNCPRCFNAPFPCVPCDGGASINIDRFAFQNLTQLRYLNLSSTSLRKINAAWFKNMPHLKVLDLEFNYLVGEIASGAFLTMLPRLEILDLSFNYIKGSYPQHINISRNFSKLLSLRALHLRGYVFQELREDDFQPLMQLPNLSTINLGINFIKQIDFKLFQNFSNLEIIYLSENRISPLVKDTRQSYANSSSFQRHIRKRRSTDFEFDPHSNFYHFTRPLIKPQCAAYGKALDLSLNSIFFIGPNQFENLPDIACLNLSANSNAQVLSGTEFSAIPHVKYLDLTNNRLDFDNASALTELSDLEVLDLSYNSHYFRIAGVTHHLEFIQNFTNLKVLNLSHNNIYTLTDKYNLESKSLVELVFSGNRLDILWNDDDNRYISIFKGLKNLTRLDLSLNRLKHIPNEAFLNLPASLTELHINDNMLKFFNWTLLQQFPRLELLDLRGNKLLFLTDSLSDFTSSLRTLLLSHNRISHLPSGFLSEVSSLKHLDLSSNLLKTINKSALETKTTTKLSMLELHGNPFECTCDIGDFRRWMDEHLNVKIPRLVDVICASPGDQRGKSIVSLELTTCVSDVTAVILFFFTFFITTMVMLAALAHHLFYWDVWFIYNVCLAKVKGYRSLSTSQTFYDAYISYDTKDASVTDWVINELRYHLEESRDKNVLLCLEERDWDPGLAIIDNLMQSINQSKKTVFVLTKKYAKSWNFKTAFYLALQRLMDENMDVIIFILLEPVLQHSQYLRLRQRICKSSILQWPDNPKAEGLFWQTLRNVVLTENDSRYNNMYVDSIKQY
Briefly: Antagonist activity at TLR8 in human PBMC cells […] assessed as reduction in IL-6 level measured after 20 hrs by AlphaLISA assay. The format is cell-based. For orientation: In Alpha technology, singlet oxygen from a donor bead excites a nearby acceptor bead.

Series [2] in a line: Metabolic stability in human liver microsomes assessed as intrinsic clearance. Conditions: read-out: CLH. The format is ADME, Microsome. A general note: Microsomes from liver hold many membrane-bound enzymes, among them those of drug oxidation.
Another series has as its target T3, Toll-like receptor 7 (Homo sapiens, UniProt Q9NYK1).
T3 sequence (Q9NYK1 whole entry): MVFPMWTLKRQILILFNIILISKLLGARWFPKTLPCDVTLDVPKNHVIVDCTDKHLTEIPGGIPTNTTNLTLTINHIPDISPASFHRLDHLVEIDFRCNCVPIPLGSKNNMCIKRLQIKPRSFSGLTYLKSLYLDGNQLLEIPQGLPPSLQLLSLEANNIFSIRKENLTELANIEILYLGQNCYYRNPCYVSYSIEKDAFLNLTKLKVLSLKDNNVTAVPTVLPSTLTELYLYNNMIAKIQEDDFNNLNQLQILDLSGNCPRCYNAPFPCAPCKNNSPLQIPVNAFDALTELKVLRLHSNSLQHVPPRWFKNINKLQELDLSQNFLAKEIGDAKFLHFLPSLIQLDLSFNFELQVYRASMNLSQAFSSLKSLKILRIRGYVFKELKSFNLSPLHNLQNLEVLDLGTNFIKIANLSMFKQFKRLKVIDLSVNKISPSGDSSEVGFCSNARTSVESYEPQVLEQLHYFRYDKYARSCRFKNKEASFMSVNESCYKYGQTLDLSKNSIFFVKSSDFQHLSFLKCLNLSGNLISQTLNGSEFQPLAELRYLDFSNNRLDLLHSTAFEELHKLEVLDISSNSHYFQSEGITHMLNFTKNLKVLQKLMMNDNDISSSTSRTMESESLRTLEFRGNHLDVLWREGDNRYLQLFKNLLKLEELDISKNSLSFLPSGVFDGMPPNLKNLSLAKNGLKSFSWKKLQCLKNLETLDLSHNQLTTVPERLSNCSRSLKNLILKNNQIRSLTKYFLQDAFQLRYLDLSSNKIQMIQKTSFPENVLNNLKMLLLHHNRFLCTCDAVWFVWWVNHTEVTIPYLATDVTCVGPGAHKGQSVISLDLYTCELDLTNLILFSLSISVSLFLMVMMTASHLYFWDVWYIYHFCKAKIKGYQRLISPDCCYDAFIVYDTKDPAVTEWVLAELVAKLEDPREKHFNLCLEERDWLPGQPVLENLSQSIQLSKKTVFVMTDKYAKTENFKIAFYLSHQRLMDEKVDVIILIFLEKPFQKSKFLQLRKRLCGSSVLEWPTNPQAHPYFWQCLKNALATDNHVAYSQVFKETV
As to the kind of experiment: Antagonist activity at TLR7 in human PBMC cells assessed as reduction in IFN alpha measured after 20 hrs by AlphaLISA assay. The format is cell-based.

Series [3] in a line: Solubility of the compound. It is filed as physicochemical.
Series [4] has as its target Voltage-gated inwardly rectifying potassium channel KCNH2 (Homo sapiens, UniProt Q12809). As to the kind of experiment: Displacement of [3H]-dofetilite from human ERG (unknown origin). The format is toxicity. (In general: Displacement assays read how much labelled ligand stays bound in the presence of the test substance.)
A short description of series [5]: Permeability of the compound by PAMPA. It is filed as ADME.
For another series, the target named is T4, Toll-like receptor 9 (Homo sapiens, UniProt Q9NR96).
T4 sequence (Q9NR96 whole entry): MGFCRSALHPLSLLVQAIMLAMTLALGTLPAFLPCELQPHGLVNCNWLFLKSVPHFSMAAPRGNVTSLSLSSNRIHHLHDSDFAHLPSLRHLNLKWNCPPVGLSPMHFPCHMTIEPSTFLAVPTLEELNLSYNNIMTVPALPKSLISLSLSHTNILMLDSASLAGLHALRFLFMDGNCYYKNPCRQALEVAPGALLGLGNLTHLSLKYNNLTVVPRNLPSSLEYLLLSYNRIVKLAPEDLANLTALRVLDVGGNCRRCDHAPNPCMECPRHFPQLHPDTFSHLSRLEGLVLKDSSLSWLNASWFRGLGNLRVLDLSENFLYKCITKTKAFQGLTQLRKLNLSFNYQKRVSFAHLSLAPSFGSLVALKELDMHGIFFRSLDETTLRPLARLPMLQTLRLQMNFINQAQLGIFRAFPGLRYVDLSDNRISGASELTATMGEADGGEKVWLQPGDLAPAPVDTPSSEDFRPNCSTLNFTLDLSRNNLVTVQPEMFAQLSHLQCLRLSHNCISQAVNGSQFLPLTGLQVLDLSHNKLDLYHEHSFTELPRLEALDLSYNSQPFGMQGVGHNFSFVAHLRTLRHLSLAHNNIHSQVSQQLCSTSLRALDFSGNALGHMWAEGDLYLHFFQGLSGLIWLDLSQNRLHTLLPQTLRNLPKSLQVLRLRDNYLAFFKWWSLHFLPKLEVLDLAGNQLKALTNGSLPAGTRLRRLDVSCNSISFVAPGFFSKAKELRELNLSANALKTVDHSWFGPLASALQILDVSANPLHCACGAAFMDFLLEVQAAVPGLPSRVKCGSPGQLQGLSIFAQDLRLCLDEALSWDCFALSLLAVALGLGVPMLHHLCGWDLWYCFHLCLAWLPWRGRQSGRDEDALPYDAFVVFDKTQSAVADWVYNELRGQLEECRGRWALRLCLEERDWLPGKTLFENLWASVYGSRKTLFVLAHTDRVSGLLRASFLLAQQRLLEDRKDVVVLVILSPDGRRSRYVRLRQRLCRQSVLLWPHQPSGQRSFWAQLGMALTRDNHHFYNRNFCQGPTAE
Briefly: Antagonist activity at TLR9 in human PBMC cells assessed as reduction in IFN alpha measured after 20 hrs by AlphaLISA assay. The format is cell-based.

Series [6] is described as follows: Metabolic stability in mouse liver microsomes assessed as intrinsic clearance. It is filed as ADME, Microsome. Conditions: read-out: CLH.
Series [7] concerns the target T1, Cytochrome P450 3A4. As to the kind of experiment: Inhibition of CYP3A4 (unknown origin). The format is ADME.
Series [8] can be described thus: Metabolic stability in rat liver microsomes assessed as intrinsic clearance. It is filed as ADME, Microsome. Conditions: read-out: CLH.
The nature of series [9]: MRT in mouse at 1 mg/ml, po or iv. The format is ADME, organism-based. To be noted: in vivo.
A short description of series [10]: AUC in mouse at 1 mg/ml, po. Set-up: dose 1 mg/ml, route po. The format is ADME. To be noted: in vivo.
Series [11] in a line: AUC in rat at 1 mg/ml, iv. It is filed as ADME. Set-up: dose 1 mg/ml, route iv. Conditions: in vivo.
Series [12] in a line: Oral bioavailability in rat at 1 mg/ml. It is filed as ADME, organism-based. Conditions: in vivo.
A short description of series [13]: AUC in mouse at 1 mg/ml, iv. Set-up: dose 1 mg/ml, route iv. It is filed as ADME. Conditions: in vivo.
A short description of series [14]: MRT in rat at 1 mg/ml, po or iv. The format is ADME, organism-based. Conditions: in vivo.
Series [15] in a line: Volume of distribution at steady state in rat at 1 mg/ml, po or iv. It is filed as ADME, organism-based. Conditions: in vivo.
Series [16] can be described thus: Oral bioavailability in mouse at 1 mg/ml. The format is ADME, organism-based. To be noted: in vivo.
The nature of series [17]: Volume of distribution at steady state in mouse at 1 mg/ml, po or iv. It is filed as ADME, organism-based. To be noted: in vivo.
The nature of series [18]: AUC in rat at 1 mg/ml, po. The format is ADME. On the set-up: dose 1 mg/ml, route po. Conditions: in vivo.
Series [19] is described as follows: Cmax in rat at 1 mg/ml, po. The format is ADME. On the set-up: dose 1 mg/ml, route po. Conditions: in vivo.
A short description of series [20]: Cmax in mouse at 1 mg/ml, po. The format is ADME. On the set-up: dose 1 mg/ml, route po. Conditions: in vivo.

Molecules are shown by their SMILES.

Chain of Voltage-gated inwardly rectifying potassium channel KCNH2 (Q12809 whole entry): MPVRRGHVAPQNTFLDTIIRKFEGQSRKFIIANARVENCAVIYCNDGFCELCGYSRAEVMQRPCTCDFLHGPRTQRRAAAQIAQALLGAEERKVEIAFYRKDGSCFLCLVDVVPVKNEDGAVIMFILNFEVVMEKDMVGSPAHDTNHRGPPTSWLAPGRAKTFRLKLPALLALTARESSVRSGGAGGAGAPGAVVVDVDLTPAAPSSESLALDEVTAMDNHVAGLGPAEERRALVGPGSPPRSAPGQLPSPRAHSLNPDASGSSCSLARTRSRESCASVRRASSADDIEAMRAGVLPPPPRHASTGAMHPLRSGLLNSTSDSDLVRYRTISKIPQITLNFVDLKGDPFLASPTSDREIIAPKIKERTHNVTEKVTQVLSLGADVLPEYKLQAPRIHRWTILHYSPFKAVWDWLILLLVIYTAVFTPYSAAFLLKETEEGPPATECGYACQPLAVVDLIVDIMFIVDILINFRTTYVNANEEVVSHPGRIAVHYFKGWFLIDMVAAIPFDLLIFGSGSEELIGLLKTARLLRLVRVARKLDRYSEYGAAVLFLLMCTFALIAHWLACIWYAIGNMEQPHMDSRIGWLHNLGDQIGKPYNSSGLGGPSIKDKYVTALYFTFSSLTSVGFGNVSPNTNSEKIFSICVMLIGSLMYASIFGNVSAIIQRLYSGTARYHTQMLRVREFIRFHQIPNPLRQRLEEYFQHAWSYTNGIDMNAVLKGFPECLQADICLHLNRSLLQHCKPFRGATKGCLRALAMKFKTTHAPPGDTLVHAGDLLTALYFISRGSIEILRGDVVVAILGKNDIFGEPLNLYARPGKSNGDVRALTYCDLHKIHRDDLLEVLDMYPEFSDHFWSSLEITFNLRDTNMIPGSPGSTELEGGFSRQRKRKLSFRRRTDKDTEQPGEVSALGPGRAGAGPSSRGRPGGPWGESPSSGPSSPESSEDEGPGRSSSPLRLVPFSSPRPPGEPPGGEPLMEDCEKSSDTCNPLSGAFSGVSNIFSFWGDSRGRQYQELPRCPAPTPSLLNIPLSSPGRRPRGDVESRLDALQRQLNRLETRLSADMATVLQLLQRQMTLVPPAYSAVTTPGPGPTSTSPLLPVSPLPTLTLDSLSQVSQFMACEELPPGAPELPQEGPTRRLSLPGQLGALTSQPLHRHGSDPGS
T1 sequence (P08684 whole entry): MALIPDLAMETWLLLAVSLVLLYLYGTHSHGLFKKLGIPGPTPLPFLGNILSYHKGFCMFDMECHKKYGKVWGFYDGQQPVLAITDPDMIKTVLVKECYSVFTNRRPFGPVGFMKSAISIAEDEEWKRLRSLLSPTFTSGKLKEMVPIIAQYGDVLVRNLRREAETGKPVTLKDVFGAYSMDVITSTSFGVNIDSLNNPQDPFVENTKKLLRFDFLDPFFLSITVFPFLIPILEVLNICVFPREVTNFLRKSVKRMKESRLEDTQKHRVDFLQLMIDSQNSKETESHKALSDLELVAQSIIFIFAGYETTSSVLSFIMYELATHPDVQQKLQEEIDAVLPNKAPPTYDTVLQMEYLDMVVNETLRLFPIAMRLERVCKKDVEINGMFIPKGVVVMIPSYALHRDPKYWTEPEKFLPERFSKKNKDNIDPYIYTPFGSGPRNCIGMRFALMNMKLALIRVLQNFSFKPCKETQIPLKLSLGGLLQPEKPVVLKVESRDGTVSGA

One may read the IC50 as the concentration at which inhibition is half-maximal. In general, solubility refers to how much of the substance goes into solution per volume. The low end stands for little dissolved substance, the high end for much dissolved substance. As for `Cc1cc(N2CCc3c(c(C)nn3CC34CCC(N5C[C@@H](C)O[C@@H](C)C5)(CC3)CC4)C2)c2cnn(C)c2n1`, the Kobs on Cytochrome P450 3A4 [1] is 0.031 min⁻¹. The IC50 was 0.02 µM on Toll-like receptor 8; 0.01 µM on Toll-like receptor 7; over 30 µM in series [4]; 1.5 µM at Toll-like receptor 9; over 50 µM against Cytochrome P450 3A4 [7]. Moreover, the microsomal CLint in series [2] was found to be 130 µL/min/mg; in series [6] it was 440 µL/min/mg; in series [8], 55 µL/min/mg. In series [3], this molecule had a solubility of over 175 µM. Moreover, in series [5], the “log(permeability)” value is -3.9.

As to `Cc1cc(N2CCc3c(c(C)nn3CC34CCC(N(C)C)(CC3)CC4)C2)c2cnn(C)c2n1`, the Kobs on Cytochrome P450 3A4 [1] was 0.032 min⁻¹. In addition, the IC50 on Toll-like receptor 8 was 0.16 µM; at Toll-like receptor 7, 0.009 µM; in [4], over 30 µM; on Toll-like receptor 9, 0.71 µM; against Cytochrome P450 3A4 [7], over 50 µM. Moreover, the microsomal CLint in [2] turned out to be 34 µL/min/mg; in series [6], 33 µL/min/mg; in [8] it was 36 µL/min/mg. Besides, the solubility in series [3] was over 175 µM. Further, the “log(permeability)” value in series [5] is -4.6.

Regarding `CNC12CCC(Cn3nc(C)c4c3CCN(c3cc(C)nc5c3cnn5C)C4)(CC1)CC2`, the Kobs on Cytochrome P450 3A4 [1] came out at 0.008 min⁻¹. The IC50 on Toll-like receptor 8 is 0.33 µM; on Toll-like receptor 7, 0.007 µM; in series [4], over 30 µM; at Toll-like receptor 9, 0.44 µM; against Cytochrome P450 3A4 [7], over 50 µM. Moreover, the figures for the microsomal CLint in series [2], in [6] and in series [8] were under 15 µL/min/mg, 28 µL/min/mg and under 15 µL/min/mg, respectively. In [3], this molecule returned a solubility of over 175 µM. Also, the “log(permeability)” value in series [5] is reported as -5.3.

Broadly, the MRT is the average time that molecules of a dose stay in the body. The AUC is the area under the concentration-time curve, a measure of exposure. Low readings indicate less exposure, high ones more exposure. The bioavailability is dose-corrected exposure relative to a reference, in per cent. A low value points to little systemic uptake. The Cmax is the peak of the concentration-time curve. Turning to `CN[C@@H](C)C(=O)NC12CCC(Cn3nc(C)c4c3CCN(c3cc(C)nc5c3cnn5C)C4)(CC1)CC2`, the MRT in [9] and in [14] was 1.6 h each time. Also, the AUC in [10] amounted to 2.34 µM·h; in series [11], 1.78 µM·h; in [13], 1.79 µM·h; in [18], 0.483 µM·h. In addition, the Kobs at Cytochrome P450 3A4 [1] is 0.022 min⁻¹. In addition, the IC50 on Toll-like receptor 8 is 0.19 µM; in series [4], over 30 µM; at Toll-like receptor 9, 0.7 µM; at Cytochrome P450 3A4 [7] it was over 50 µM. Further, the microsomal CLint in series [2] was under 15 µL/min/mg; in series [6], 42 µL/min/mg; in [8], 34 µL/min/mg. Also, in series [5], the “log(permeability)” value was -5.3. The bioavailability in series [12] was 9%; in series [16], 26%. Moreover, the Vdss in series [15] came out at 2 L/kg; in [17], 3.5 L/kg. In addition, the Cmax in series [19] amounted to 31 nM; in series [20] it was 237 nM.
